In assay [1] the test system is THP-1 cells. As for the experimental part:
Alternatively, APCs exposed to Hsp peptides and analogs are tested for direct influence on cytokine production. For example, pre-monocyte like derived cells (e.g. human monocytic cell line THP-1), which can be differentiated to monocytes by treatment with 100 nM phorbol ester (12-O-tetradecanoylphorbol-13-acetate, PMA) for 72 hours, are used. […] Differentiated cells are preincubated with the tested compounds or incubated after PMA treatment following subsequent stimulus with LPS. Secreted amounts of cytokines (such as TNF, and IP-10) are measured. Another example for direct measuring of cytokines secreted from APCs exposed to Hsp peptides and analogs involve measurement of cytokines (e.g. IP-10 and IL-8) secretion in human peripheral blood mononuclear cells cultured first with GM-CSF and IL4 and then with LPS, zymosan or tested peptide. These cells are also used for investigation of cell surface antigens (e.g. CD83 and CD86) indicating their maturation.
The human cell line THP-1 was used for this assay. These cells are pre-monocyte like derived from acute monocytic leukemia and can be differentiated to monocytes by treatment with 100 nM phorbol ester (12-O-tetradecanoylphorbol-13-acetate, PMA) for 72 hours. During this time the cells change morphology from round cells growing in suspension to larger, flat, adherent cells.

Assay [2] has as its system mouse monocyte line J774. Kind of assay: Secretion of oxygen free radicals (oxidative burst) from mouse monocyte line. It counts as cell-based. As to conditions: J774, FIG. 5.
The test system of assay [3] is cell lines.
The subject of assay [4] is peripheral blood mononuclear cells cultured with GM-CSF and IL4 (dendritic cells). Kind of assay: Peripheral blood derived dendritic cells: secreted cytokines (IP-10, IL-8) and cell surface antigens (CD83, CD86). It counts as cell-based, human. As to conditions: for IL-8 / IP-10: overnight. As for the experimental part: The effect of the compositions of the present invention on peripheral blood derived dendritic cells, was tested according to a protocol described by Re, F. and Strominger, J. L. 2001. Toll-like receptor 2 (Tlr2) and Tlr4 differentially activate human dendritic cells. (J Biol Chem 276: 37692-9). According to this method immature dendritic cells derived from human peripheral blood are used. The outcome after incubating the cells with tested molecules is different if the stimulation is through the Toll 4 receptor or the Toll 2 receptor. According to the authors, Toll 2 signaling by stimulation with zymosan is associated with a Th2 kind of response (exemplified by IL-8) and Toll 4 signaling, such as obtained by LPS stimulation (exemplified by IP-10), with a Th1 type of response. The compositions of the present invention were tested using a similar assay system in order to check which stimulation type they induce. […] The increase in CD86 expression after exposure of APCs to Hsps or Hsp derived peptides is important since CD86 (B7.2) is an essential component of the immunological synapse formed between T cells and APC. This synapse consists of CD80 and CD86 on the side of the APC and CD28 and CD40 on the side of the T cell. T cell recognition of peptide on APC without the concurrent expression of CD86 gives rise to anergy instead of a T cell response. Therefore in order to produce a response all components must be present.
The assay was based on the protocol described by Re, F. and Strominger, J. L. 2001. Toll-like receptor 2 (Tlr2) and Tlr4 differentially activate human dendritic cells. (J. Biol Chem 276: 37692-9).
Peripheral blood mononuclear cells were prepared from leucocytes from blood lots obtained from the blood bank. The cells were plated at 10^8 cells/10 ml/Petri dish in RPMI medium including 10% FCS and allowed to adhere at 37° C. for 2 hours. At the end of this time, the non-adherent cells were washed off the plates with PBS and the adherent cells resuspended in fresh medium as before. The cells were then cultured for at least 8 days with the addition of GM-CSF and IL4 with the medium changed every 4 days. After this time, the cells were harvested and cultured overnight with LPS, zymosan or p277(Val^6-Va^11). The next day, the supernatant was collected for assay of the secreted cytokines (IP-10 and IL-8) and the cells were harvested for investigation of the cell surface antigens (CD83, CD86). CD83 is an antigen characteristic of dendritic cells. […] The second marker, CD86 (B7.2) is characteristic of mature dendritic cells. The marker CD86 is an essential component of the immunological synapse formed between T cells and APC. This synapse consists of CD80 and CD86 on the side of the APC and CD28 and CD40 on the side of the T cell. This is of course in addition to the specific recognition between the T cell receptor and peptide held in the MHC of the APC. T cell recognition of peptide on APC without the concurrent expression of CD86 gives rise to anergy instead of a T cell response.

The mark [5] stands for this setting: differentiated THP-1 cells incubated with peptide.
Where [6] appears, read: preincubation, subsequent stimulus with 10 ng/ml LPS.

Like-named read-outs stand apart in the source and are kept apart here.

“VLGGGVALLRVIPALDSLTPANED [p277(Val^6-Val^11)]”: the “direct IP-10 secretion” value in assay [1] (setting [5]) was “did not secrete TNF, or IP-10 directly”. Moreover, the “direct TNF secretion” value in assay [1] (setting [5]) is listed as “did not secrete TNF”. In addition, the “% stimulation of IP-10 secretion” value is reported as −48% in assay [1] (preincubation with 0.0128 ng/ml, then 10 ng/ml LPS); 52% in assay [1] (preincubation with 0.064 ng/ml, then 10 ng/ml LPS); 61% in assay [1] (preincubation with 0.32 ng/ml, then 10 ng/ml LPS); 46% in assay [1] (preincubation with 1.6 ng/ml, then 10 ng/ml LPS); 77% in assay [1] (preincubation with 8 ng/ml, then 10 ng/ml LPS); 141% in assay [1] (preincubation with 40 ng/ml, then 10 ng/ml LPS). Also, the “% stimulation of IP-10 secretion” value in assay [1] (preincubation with 200 ng/ml, then 10 ng/ml LPS) is reported as 45%; in assay [1] (preincubation with 1000 ng/ml, then stimulation with 10 ng/ml LPS), 45%. Also, in assay [1] (setting [6]), the “amount of IP-10 secreted after preincubation and LPS (in words)” value is “increased amount of IP-10 secreted”. Further, the “amount of TNF after preincubation and LPS” value in assay [1] (setting [6]) is “not significantly affected”. Also, in assay [2], the “inhibition of the oxidative burst (secretion of oxygen free radicals)” value is given as “effective”. For the same sequence, in assay [3], the “direct stimulation of TNFα” value is listed as “ineffective”. Besides, in assay [3], the “inhibition of TNFα secreted as a result of stimulation by LPS or hsp60” value is “ineffective”. For the same sequence, the “IL-8 secretion (in words)” value in assay [4] (overnight stimulation) was “resulted in IL-8 secretion”. The “IP-10 secretion (in words)” value in assay [4] (overnight stimulation) is reported as “no IP-10 secretion”. The “maturation: percentage of cells stained with anti-CD86” value in assay [4] (overnight stimulation, FIG. 3) is listed as “increase of maturation”. The IL-8 was 2368 pg/mL in assay [4] (stimulus 0.5 ng/ml) and 2574 pg/mL in assay [4] (stimulus 50 ng/ml). Moreover, the IP-10 is -1 pg/mL in assay [4] (stimulus 0.5 ng/ml), 2 pg/mL in assay [4] (stimulus 5 ng/ml), 39 pg/mL in assay [4] (stimulus 50 ng/ml) and 21 pg/mL in assay [4] (stimulus 0.5 μg/ml).

The values above are taken from patent publication US7576177B2, “Hsp peptides and analogs for modulation of immune responses via antigen presenting cells” (Andromeda Biotech Ltd., priority 2002, dated 2009).
